# Assay results as given in patent US20120035180A1, “PHARMACEUTICAL COMPOSITION FOR TREATING CANCER COMPRISING CHLORIN E6-FOLIC ACID CONJUGATE COMPOUND AND CHITOSAN” (priority 2009, published 2012).
# What was measured:
# [1] = Spectral and fluorescent parameters of chlorin e6 conjugate in different systems; type: physicochemical
# Method: Pigment-protein complexes have been formed by adding to the solution of human serum albumin (HAS) a specific amount of photosensitizer dissolved in the same buffer. […] Similarly, the photosensitizer was included in detergent micelle (Triton X-100, C=10^−3M).
# The electronic absorption spectra of the subject solution were recorded on Specord UV-Vis. The fluorescence spectra and value of degree of fluorescence polarization (P) were recorded on an automatic spectrofluorimeter (Institute of Physics). Life time of photosensitizer fluorescence (ts) was estimated using an impulse fluorometer operating in the mode of photons counting.
# The main feature of the absorption spectrum is intensive (ε=4.8 10^4 M^−1cm^−1) Qx (0-0) band at 660 nm, which falls into the spectral window of the majority of biological tissues.
# Complex formation of chlorin e6 conjugate, and HSA, liposomes or detergent micelles leads to bathochromic shift in the absorption and fluorescence spectra of pigment. However, an increase in fluorescence photoresponse (B) was observed, which correlates with the growth of life time (ts) without changing of the Kravec integral value.
# [2] = Photophysical parameters (triplet state, intercombinative conversion); type: physicochemical
# Method: Values of ? and ? were determined after substantially transferring of all molecules of the studied substance in excited triplet state. In such conditions, ΔD=C Δε^Tl, wherein C indicates the molar concentration of the substance in solution, and l indicates the length of the optical way. As the standard to estimate γ, Pd(II)-octa ethyl porphyrin (Pd(II)-OEP) was selected, for which the γ value in benzol was considered as equal to one.
# Hela cells = experiment: Competition assay with exogenous folic acid in Hela cells; type: cell-based; conditions: 4 μM/l folic acid, 24 hours
# Source text: Then, the sample was centrifuged, the supernatant was taken, and the pellet was rewashed with cooled Hank's solution. The obtained pellet was again transferred into Hank's solution.
# HeLa tumor cells = experiment: Cytotoxicity (antiproliferative assay) in the absence of light exposure; type: cell-based; conditions: 24 hr incubation
# Method: Cytotoxicity was analyzed, considering the intensity of proliferative processes in cells, photosensitizer concentration, and dose of optical power. For each point, 3 flasks with cell monolayer were used.
# The monolayer culture of HeLa tumor cells was chosen and used as the cell.
# The culture of HeLa tumor cells was grown in nutrient medium 199 or in nutrient medium containing hemohydrolyzate supplemented with 10% fetal bovine serum and […] of kanamycin.
# On day 4 after the cell culture was inoculated in the flasks (100,000 cells per 2.0 ml of nutrient medium), the photosensitizer was added at a concentration of 1, 2.5, 5.0, 10.0, 20.0, or 30.0 mg/ml.
# Flasks with light-protective cover (dark cytotoxicity) were incubated at 37.5° C. for 1 hour. The cells were washed with Hank's solution 4 times. 2.0 ml of fresh nutrient medium were added, and the cells were irradiated at the temperature of melting ice for 5, 10, 15 or 20 mins by the light flux of a “METALAZ” laser medical device (wavelength: 627.8 nm, 578.2 or 510.6 nm) or “LD 680-2000” (wavelength: 670-690 nm), depending on the wavelength of maximum spectral absorption of the studied photosensitizer, at a dose of 40 J/cm^2. After 20-24 hours, the number of tumor cell was counted in Goriaev's chamber.
substance,measurement,setting,value
[γ-(6-aminohexyl)folic acid]-chlorin e6 [chlorin e6 conjugate],1^00fl,[1]; Dimethyl sulfoxide,672 nm
same,absorption maximum wavelength (Qx 0-0 band),[1]; Dimethyl sulfoxide,661 Nm
same,1^00fl,"[1]; H2O, pH 8.1",664 nm
same,absorption maximum wavelength (Qx 0-0 band),"[1]; H2O, pH 8.1",657 Nm
same,1^00fl,"[1]; HSA, pH 8.1",669 nm
same,absorption maximum wavelength (Qx 0-0 band),"[1]; HSA, pH 8.1",664 Nm
same,1^00fl,"[1]; Liposomes, pH 8.1",670 nm
same,absorption maximum wavelength (Qx 0-0 band),"[1]; Liposomes, pH 8.1",665 Nm
same,1^00fl,[1]; Methanol,667 nm
same,absorption maximum wavelength (Qx 0-0 band),[1]; Methanol,662 Nm
same,1^00fl,[1]; Pyridine,673 nm
same,absorption maximum wavelength (Qx 0-0 band),[1]; Pyridine,666 Nm
same,1^00fl,[1]; Tetrahydrofuran,673 nm
same,absorption maximum wavelength (Qx 0-0 band),[1]; Tetrahydrofuran,667 Nm
same,1^00fl,"[1]; Triton X-100, pH 8.1",670 nm
same,absorption maximum wavelength (Qx 0-0 band),"[1]; Triton X-100, pH 8.1",665 Nm
same,"τt (lifetime of excited triplet state, oxygen saturated)","[2]; H2O, pH 8.1",2.5 μs
same,"τt^0 (lifetime of excited triplet state, deoxygenated)","[2]; H2O, pH 8.1",170 μs
same,"τt (lifetime of excited triplet state, oxygen saturated)","[2]; HSA, H2O, pH 8.1",14.7 μs
same,"τt^0 (lifetime of excited triplet state, deoxygenated)","[2]; HSA, H2O, pH 8.1",700 μs
same,"τt (lifetime of excited triplet state, oxygen saturated)","[2]; Liposomes, H2O, pH 8.1",1.4 μs
same,"τt^0 (lifetime of excited triplet state, deoxygenated)","[2]; Liposomes, H2O, pH 8.1",70 μs
same,γ (photoresponse of intercombinative conversion),"[2]; Liposomes, H2O, pH 8.1, standard Pd(II)-OEP",078
same,"τt (lifetime of excited triplet state, oxygen saturated)",[2]; Pyridine,0.3 μs
same,"τt^0 (lifetime of excited triplet state, deoxygenated)",[2]; Pyridine,140 μs
same,"τt (lifetime of excited triplet state, oxygen saturated)",[2]; Triton X-100,2.6 μs
same,"τt^0 (lifetime of excited triplet state, deoxygenated)",[2]; Triton X-100,230 μs
same,effect of free folic acid on uptake in Hela cells,Hela cells,significantly reduced
same,cell survival rates,HeLa tumor cells,about 90%
